Measurements: patent EP0652290A1, “Method for regulation of NF-kB” (YISSUM RESEARCH DEVELOPMENT COMPANY OF THE HEBREW …, priority 1993, dated 1995)
Where a SMILES comes first, the peptide text is derived from it. The star is where a group is joined. Cbz = O=C(OCc1ccccc1)*; CH2Cl = ClC*

Key:
NF-κB [1] = assay: NF-κB activation by EMSA, Jurkat cells stimulated with TNF-α; assay type: cell-based; details: for IC90: Homo sapiens, Jurkat cells, 30 min pretreatment, stimulated by TNF-α, EMSA, read-out: IC90, 90% inhibitory concentration, activation of NF-κB, Jurkat; for induction of NF-κB DNA-binding activity in response to PMA and TNF-α: Jurkat (TNF-α) and 70Z/3 (PMA) cell cultures, even at high concentrations
Description: The functional significance of the inducible decay of IκBα for activation of NF-κB was tested by exposure of cell cultures to various protease inhibitors. Six distinct serine protease inhibitors with chymotrypsin-like specificity efficiently prevent the induction of NF-κB DNA-binding activity in response to PMA and TNF-α (Table 1). Constitutive DNA-binding activities, including Oct-1, were not affected and no significant cell death was observed by a dye-exclusion assay and phase-contrast microscopy at inhibitor concentrations preventing […] activation. Leupeptin, antipain and the trypsin inhibitor tosyl-Lys-methylester were not effective, even at high concentrations.

NF-κB [2] = assay: NF-κB activation by EMSA, 70Z/3 cells stimulated with PMA, IL-1β or LPS; assay type: cell-based; details: for IC90: 30 min pretreatment, stimulated by PMA, EMSA, read-out: IC90, 90% inhibitory concentration, activation of NF-κB, 70Z/3; for induction of NF-κB activity in response to PMA: 25 µM
70Z/3 cells = assay: Inhibition of protein synthesis in 70Z/3 cells; assay type: cell-based; details: read-out: protein synthesis is inhibited
Description: 70Z/3 cells were treated with 25 µg/ml cycloheximide (Sigma). The protein synthesis inhibitor cycloheximide (CHX) activates NF-κB in 70Z/3 cells. At 10 µg/ml, protein synthesis is inhibited to 90% in 70Z/3 cells. Cell culture, extract preparation, EMSA, SDS-PAGE and Western blotting were as described above in Example 1. Densitometric scanning was done with a Howtek Scanmaster 3 and data analyzed by the software Quantity One Version 2.2.

IκBα [3] = assay: IκBα level and stability by Western blot in 70Z/3 cells; assay type: cell-based
NF-κB [4] = assay: HIV-LTR-Luc reporter activity in Jurkat cells; assay type: cell-based; details: stimulated 8 hours, PMA 10 ng/ml
Description: Jurkat cells were stimulated with the following reagents: (P), PMA (phorbol-12 myrislated 13-acetate), 10 ng/ml; (I), A23187 Ca⁺⁺ ionophore, 1µM; (3), anti-CD3 (OKT3), 5µg/ml; (28) anti-CD28 (monoclonal antibody 9.3), 3 µg/ml; (P/I), PMA + Ca⁺⁺ ionophore in IκBα transfected Jurkat cells; (NS) non-stimulated (0.1%, DMSO only).
The steps involved in the activation of NF-κB, include IκBα elimination through the appearance of the nuclear DNA binding activity, and the transcriptional activity. NF-κB activation was measured through the reporter activity of the HIV-LTR promoter, which is largely controlled by NF-κB in conjunction with the HIV Tat protein (Nabel, G., et al., Nature, 326:711-713, 1987). Jurkat cells were stimulated with the following reagents: (P), PMA (phorbol-12 myrislated 13-acetate), 10 ng/ml; (I), A23187 Ca⁺⁺ ionophore, 1µM; (3), anti-CD3 (OKT3), 5µg/ml; (28) anti-CD28 (monoclonal antibody 9.3), 3 µg/ml; (P/I), PMA + Ca⁺⁺ ionophore in IκBα transfected Jurkat cells; (NS) non-stimulated (0.1%, DMSO only). Jurkat cells were transfected by electroporation (Su, B., et al., supra) with 1 µg HIV-LTR-LUC (Israel, S., et al., Gene, 104:139-145, 1991) and 4 µg PBC-TAT. […] Following 30 hours transfection, the cells were stimulated for 8 hours and luciferase activity was determined using the Promega luciferase assay system.

NF-κB [5] = assay: NF-κB activation by TNF-α in various other cell lines; assay type: cell-based; details: various other cells lines
IκBα [6] = assay: IκBα phosphorylation and degradation by Western blot, Jurkat cells stimulated with PMA and Ca⁺⁺ ionophore; assay type: cell-based; details: 25 µM TPCK or 400 ng/ml CsA 30 min, 100 µM PDTC 1 hour before PMA + Ca⁺⁺ ionophore
Description: Subcellular protein extracts were prepared essentially according to Beg, A.A. et al., supra. Following 20 minutes stimulation of Jurkat cells, cytosolic extracts (50 µg/point) were analyzed by Western blot, and nuclear extracts (5 µg/point) by EMSA, as described (Henkel, T., et al., Nature, 365:182-185, 1993).
Rabbit anti-IκBα was prepared against the GST-IκBα fusion protein by standard methods. The specifity of the antibodies was confirmed in competition assays using recombinant IκBα protein.
On the basis of the results in Example 3, phosphorylation of IκBα, in parallel to NF-κB activation, is induced according to the physiological requirements for T cell activation. Cell stimulation and extract preparation was as described above. […] Duration of Jurkat cell stimulation with PMA (10 ng/ml) and Ca⁺⁺ ionophore (1µM) was determined by Western blot analysis. […]
N-acetyl-Leu-Leu-Norleucinal (AcLLnL) is a reversible non-alkylating proteosome inhibitor not likely to disturb post-translation modification events. […] Anti-Rel A serum was a rabbit polyclonal antiserum prepared against the C-terminus portion of Rel A. In FIGURE 6a, cells were pretreated for 4 hours with 50 µg/ml AcLLnL, stimulated with PMA (10 ng/ml) and Ca⁺⁺ ionophore (1 µM) for the time intervals indicated and analyzed by Western blot. […]

IκBα [7] = assay: IκB degradation by Western blot in HeLa S3 or Hep G2 cells after TNFα, IL-1 or PMA; assay type: cell-based, Human; details: HeLa S3 or Hep G2, 4 hours pretreatment, 20 minutes
Description: Human HeLa S3 or Hep G2 cells were pretreated for 4 hours with the indicated peptide aldehyde prior to simulation with either TNFα (20ng/ml), IL-1(20 ng/ml) or PMA (100 µg/ml). The cells were harvested 20 minutes after induction and the extent of IκB degradation was examined via Western blot analysis using IκB specific antisera. FIGURE 7 summarizes the ability of related peptide aldehydes to block IκB degradation induced by a variety of agents which activate NF-κB. (+++) indicates greater than 85% inhibition, (++) indicates greater than 60% inhibition and (-) indicates no inhibition of IκB degradation was observed.

NF-κB [8] = assay: Dose response of NF-κB DNA binding (EMSA) in Hela cells stimulated with TNFα; assay type: cell-based
Description: Hela cells were pretreated for 5 hours with the indicated concentration of peptide aldehyde inhibitor or left untreated and then stimulated with TNFα (15ng/ml) for 20 minutes. The cells were then harvested for whole cell extract preparation. Extracts were analyzed for NF-κB DNA binding activity by electrophoretic mobility shift assay (EMSA) and relative IκBα protein levels were measured by Western blot analysis as shown in FIGURE 9.
IC₅₀ for ZLLF was 3.4 µM and 12.1 µM for AcLLnL.

CC(=O)NC(Cc1ccccc1)C(=O)Oc1ccc2ccccc2c1 (racemic) [N-Acetyl-DL-Phe-β-Naphthylester (APNE), N-Acetyl-DL-Phe-β-Naphthylester]
IC90 (NF-κB [1]): 200 µM

O=c1oc(Cl)c(Cl)c2ccccc12 [3,4-Dichloroisocoumarin]
IC90 (NF-κB [1]): 20 µM

CC(C)C[C@H](NC(=O)OCc1ccccc1)C(=O)N[C@@H](Cc1ccc(O)cc1)C(=O)CCl [Benzyloxycarbonyl-Leu-Tyr-chloromethylketone] (Cbz-Leu-Tyr-CH2Cl)
IC90 (NF-κB [2]; 70Z/3 cells): 10 µM

C[C@@H]1C[C@@H]([C@H](O)CC2CC(=O)NC(=O)C2)C(=O)[C@@H](C)C1 [CHX, cycloheximide]
inhibition at 10 µg/mL (70Z/3 cells): 90%
half-life of IκBα (IκBα [3]; CHX-treated 70Z/3 cells, 25 µg/ml, no PMA): approximately 138 minutes
DNA binding of NF-κB (NF-κB [2]; 1 hour treatment of 70Z/3 cells with CHX, no PMA): induced only weakly

CC(=O)N[C@@H](CC(C)C)C(=O)N[C@@H](CC(C)C)C(=O)N[C@H](C=O)CCCNC(=N)N [Leupeptin]
induction of NF-κB DNA-binding activity in response to PMA and TNF-α (NF-κB [1]): not effective

CCOC(=O)[C@H](Cc1ccc(O)cc1)NC(=O)c1ccccc1 [N-Benzoyl-L-Tyr-ethylester (BTEE), N-Benzoyl-L-Tyr-ethylester]
IC90 (NF-κB [1]): 1000 µM

CCCCCCCCCCCCCC(=O)O[C@@H]1[C@@H](C)[C@@]2(O)[C@@H](C=C(CO)C[C@]3(O)C(=O)C(C)=C[C@@H]23)[C@@H]2C(C)(C)[C@]12OC(C)=O [PMA, phorbol 12-myristate 13-acetate]
enhancement of reporter activity (HIV-LTR-Luc) over basal (NF-κB [4]): two-fold
time after stimulation until most of the IκBα had decayed (IκBα [3]; 70Z/3 cells): ≤ 5 min
half-life of IκBα (IκBα [3]; protein synthesis-arrested (CHX) 70Z/3 cells stimulated with PMA, phase of fastest decay): 1.5 min

Cc1ccc(S(=O)(=O)NC(CCCCN)C(=O)CCl)cc1 (stereo not drawn) [TLCK, Tosyl-Lys-chloromethylketone]
IC90 (NF-κB [1]): 100 µM
induction of NF-κB activity in response to PMA (NF-κB [2]; 70Z/3 cells): could not prevent
IC90 (NF-κB [2]; 70Z/3 cells): 100 µM

Cc1ccc(S(=O)(=O)N[C@@H](Cc2ccccc2)C(=O)CCl)cc1 [TPCK, Tosyl-Phe-chloromethylketone]
IC90 (NF-κB [1]): 20 µM
activation of NF-κB by TNF-α (NF-κB [5]): prevented
decay of IκB-α in response to PMA (IκBα [3]; 25 µM, 1 hour pretreatment, 70Z/3 cells): fully inhibited
induction of NF-κB activity in response to PMA (NF-κB [2]; 70Z/3 cells): fully inhibited
IC90 (NF-κB [2]; 70Z/3 cells): 20 µM
NF-κB activity when added after stimulation (NF-κB [2]; 70Z/3 cells, added after stimulation with PMA, IL-1 or LPS): did not strongly interfere
activation of NF-κB by IL-1β and LPS (NF-κB [2]; 70Z/3 cells, treated 10 minutes before stimulation): prevented
inducible degradation of IκBα (IκBα [6]): blocked both the inducible modification and degradation of IκBα completely
inducible modification (phosphorylation) of IκBα (IκBα [6]): blocked both the inducible modification and degradation of IκBα completely

COC(=O)C(CCCCN)NS(=O)(=O)c1ccc(C)cc1.Cl (stereo not drawn) [tosyl-Lys-methylester]
induction of NF-κB DNA-binding activity in response to PMA and TNF-α (NF-κB [1]): not effective

benzyloxycarbonyl-Leu-Leu-Phenylalaninal [ZLLF]
rank as inhibitor of proteolysis of IκBα (IκBα [7]): the most potent inhibitor
TNFα induced NF-κB activity (NF-κB [8]; 1µM to 200 µM, 5 hours pretreatment, TNFα 15ng/ml 20 minutes): inhibited TNFα induced NF-κB activity in a dose-dependent manner
IC50 (NF-κB [8]; densitometric scanning of the EMSA and Western blots, TNFα, read-out: IC₅₀): 3.4 µM
